# Source: ChEMBL document CHEMBL6153168, “Novel Tricyclic KRAS Inhibitors for the Treatment of Cancer” (ACS Med Chem Lett, 2025)
# Tests used:
# [1] = test system: NCI-H358; assay: Anticancer activity against human NCI-H358 cells harboring KRAS G12C mutant assessed as inhibition of cell viability incubated for 72 hrs by cell counting kit 8 method; assay type: functional, cell-based; conditions: NCI-H358, 72 h
# [2] = test system: AGS; assay: Anticancer activity against human AGS cells harboring KRAS G12D mutant assessed as inhibition of cell viability incubated for 72 hrs by cell counting kit 8 method; assay type: functional, cell-based
# [3] = test system: SW-620; assay: Anticancer activity against human SW620 cells harboring KRAS G12V mutant assessed as inhibition of cell viability incubated for 72 hrs by cell counting kit 8 method; assay type: functional, cell-based; conditions: SW-620, 72 h
# [4] = Disruption of 6-his tagged KRAS G12V mutant/BRAF RBD complex (unknown origin) incubated for 3 hrs in the presence of CYPA by TR-FRET assay; design: species or system Homo sapiens
# [5] = Disruption of 6his-tagged KRAS G12C mutant/BRAF RBD complex (unknown origin) incubated for 3 hrs in the presence of CYPA by TR-FRET assay; design: species or system Homo sapiens
# [6] = Disruption of 6-his tagged KRAS G12D mutant/BRAF RBD complex (unknown origin) incubated for 3 hrs in the presence of CYPA by TR-FRET assay; design: species or system Homo sapiens
# [7] = Inhibition of ERK phosphorylation in human SW620 cells harboring KRAS G12V mutant incubated for 4 hrs by absorbance based analysis; assay type: cell-based; conditions: SW-620, 4 h
# [8] = Inhibition of ERK phosphorylation in human NCI-H358 cells harboring KRAS G12C mutant incubated for 4 hrs by absorbance based analysis; assay type: cell-based; conditions: NCI-H358, 4 h
# [9] = Inhibition of ERK phosphorylation in human AGS cells harboring KRAS G12D mutant incubated for 4 hrs by absorbance based analysis; assay type: cell-based
Structure (SMILES),IC50 [1],IC50 [2],IC50 [3],IC50 [4],IC50 [5],IC50 [6],IC50 [7],IC50 [8],IC50 [9]
CO[C@@H](C)c1ncccc1-c1c2c3cc(cc4c3n1CCO4)-c1cc(O)cc(c1)C[C@H](NC(=O)[C@H](C(C)C)N(C)C(=O)C1(F)CCN(C(=O)[C@H](F)Cl)CC1)C(=O)N1CCC[C@H](N1)C(=O)OCC(C)(C)C2,–,–,–,445 nM,16 nM,3910 nM,–,–,–
CO[C@@H](C)c1ncccc1-c1c2c3cc(cc4c3n1CCC4)-c1cc(O)cc(c1)C[C@H](NC(=O)[C@H](C(C)C)N(C)C(=O)C1(F)CCN(C(=O)[C@H](F)Cl)CC1)C(=O)N1CCC[C@H](N1)C(=O)OCC(C)(C)C2,–,–,–,164 nM,6 nM,1880 nM,–,–,–
CO[C@@H](C)c1ncc(N2CCOCC2)cc1-c1c2c3cc(cc4c3n1CC(F)(F)C4)-c1csc(n1)C[C@H](NC(=O)[C@H](C(C)C)N(C)C(=O)C1(F)CCN(C(=O)[C@H](F)Cl)CC1)C(=O)N1CCC[C@H](N1)C(=O)OCC(C)(C)C2,8 nM,16 nM,26 nM,–,–,–,–,–,–
CO[C@@H](C)c1ncc(N2CCN(C)CC2)cc1-c1c2c3cc(cc4c3n1CCC4)-c1csc(n1)C[C@H](NC(=O)[C@H](C(C)C)N1CCC3(CN(C(=O)[C@H](F)Cl)C3)C1=O)C(=O)N1CCC[C@H](N1)C(=O)OCC(C)(C)C2,–,–,–,–,–,–,38 nM,19 nM,62 nM

# Now from value to molecule:
IC50 [1],IC50 [2],IC50 [3],IC50 [4],IC50 [5],IC50 [6],IC50 [7],IC50 [8],IC50 [9],Structure (SMILES)
2 nM,292 nM,107 nM,–,–,–,–,–,–,CO[C@@H](C)c1ncc(N2CCN(C)CC2)cc1-c1c2c3cc(cc4c3n1CCC4)-c1csc(n1)C[C@H](NC(=O)[C@H](C(C)C)N(C)C(=O)C1(F)CCN(C(=O)[C@H](F)Cl)CC1)C(=O)N1CCC[C@H](N1)C(=O)OCC(C)(C)C2
–,–,–,–,–,–,23 nM,1 nM,> 10000 nM,CO[C@@H](C)c1ncc(N2CCOCC2)cc1-c1c2c3cc(cc4c3n1CCC4)-c1csc(n1)C[C@H](NC(=O)[C@H](C(C)C)N(C)C(=O)C1(F)CCN(C(=O)[C@H](F)Cl)CC1)C(=O)N1CCC[C@H](N1)C(=O)OCC(C)(C)C2
